Patent publication EP2945947B1, “INHIBITING THE TRANSIENT RECEPTOR POTENTIAL A1 ION CHANNEL” (Merck Sharp & Dohme Corp., priority 2013, dated 2014)
≈ marks a conversion by molar mass, not a printed value. Like-named read-outs stand apart in the source and are kept apart here.

Experiments:
[1] = target: human TRPA1 (Homo sapiens, UniProt O75762); experiment: Inhibition of the TRPA1 ion channel, whole cell patch configuration (Example 1); format: cell-based; details: current activation 10 µM AITC, read-out: Human TRPA1 IC50 Inward Current
human TRPA1, sequence (O75762 whole entry): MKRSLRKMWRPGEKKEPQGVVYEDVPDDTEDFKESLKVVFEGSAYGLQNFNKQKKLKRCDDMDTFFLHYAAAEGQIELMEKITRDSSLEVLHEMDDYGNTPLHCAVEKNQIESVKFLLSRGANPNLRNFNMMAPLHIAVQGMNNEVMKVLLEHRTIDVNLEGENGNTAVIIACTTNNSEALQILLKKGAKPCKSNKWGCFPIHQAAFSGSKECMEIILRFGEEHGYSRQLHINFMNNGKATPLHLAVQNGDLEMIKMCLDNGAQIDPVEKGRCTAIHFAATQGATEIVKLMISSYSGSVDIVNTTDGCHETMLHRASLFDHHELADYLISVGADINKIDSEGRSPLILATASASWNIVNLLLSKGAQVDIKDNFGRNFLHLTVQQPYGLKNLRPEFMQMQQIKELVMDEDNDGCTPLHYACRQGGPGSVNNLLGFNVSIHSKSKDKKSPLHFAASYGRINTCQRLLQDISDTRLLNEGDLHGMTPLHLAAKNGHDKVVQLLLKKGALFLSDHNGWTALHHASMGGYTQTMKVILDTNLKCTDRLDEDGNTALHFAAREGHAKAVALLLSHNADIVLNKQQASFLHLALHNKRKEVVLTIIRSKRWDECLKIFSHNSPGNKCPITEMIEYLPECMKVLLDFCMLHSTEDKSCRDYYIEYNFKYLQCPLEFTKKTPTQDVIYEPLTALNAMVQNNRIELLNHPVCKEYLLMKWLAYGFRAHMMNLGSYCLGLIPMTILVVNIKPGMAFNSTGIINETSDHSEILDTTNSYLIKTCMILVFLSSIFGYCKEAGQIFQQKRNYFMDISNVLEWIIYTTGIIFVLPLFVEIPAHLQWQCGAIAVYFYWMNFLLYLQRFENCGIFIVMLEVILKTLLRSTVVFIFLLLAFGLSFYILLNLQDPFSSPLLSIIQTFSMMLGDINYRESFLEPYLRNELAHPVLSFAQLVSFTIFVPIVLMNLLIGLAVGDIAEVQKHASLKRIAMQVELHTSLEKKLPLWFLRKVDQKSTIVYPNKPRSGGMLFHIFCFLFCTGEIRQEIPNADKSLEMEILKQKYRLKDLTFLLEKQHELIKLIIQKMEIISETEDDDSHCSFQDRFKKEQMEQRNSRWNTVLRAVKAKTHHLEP
Description: Compounds of Formula (Ia) inhibit the TRPA1 channel, as measured using the method of Example 1. […] Data for TRPA1 inhibition and for TRPA1 selectivity was obtained by this method for the indicated compounds of Formula (Ia), with the relevant data included in Tables 1a - f below. All currents were recorded in whole-cell configuration using EPC-9 and EPC-10 amplifiers and Patchmaster software (HEKA). […] The standard pipette solution consisted of 140mM CsAsp, 10 mM EGTA, 10 mM HEPES, 2.27 mM MgCl2, 1.91 mM CaCl2, 4 mM MgATP, and 0.1-0.3 mM Na2GTP, with pH adjusted to 7.2 with CsOH. In addition, a solution containing 145 mM CsCl, 10 mM HEPES, 10 mM EGTA and 1 mM MgCl2 (pH 7.2 adjusted with CsOH) can be used. The standard bath solution contained 150 mM NaCl, 10 mM HEPES, 10 mM glucose, 4.5 mM KCl, 1 mM EGTA, 3 mM MgCl2, with pH adjusted to 7.4 with NaOH. In some instances, 2 mM CaCl2 was added in place of EGTA and the concentration of MgCl2 was reduced to 1 mM.
Data were collected either by continuous recordings at -60 mV or by applying voltage ramps from a holding potential of 0 mV every 4 s. Continuous recordings were collected at 400 Hz and digitally filtered off-line at 10 Hz for presentation. Voltage ramps were applied from - 100 mV to 100 mV over the course of 400 ms, and data were collected at 10 kHz and filtered at 2.9 kHz. Inward and outward currents were analyzed from the ramps at -80 and 80 mV, respectively. Liquid junction potential correction was not used.
Solutions were switched using a gravity-fed continuous focal perfusion system. To achieve rapid temperature changes, two temperature control, and perfusion systems were employed simultaneously. For temperatures ≥ 22°C, a Warner Instruments bipolar temperature controller (TC-344B) and inline heater (SHM-8) were used. […] Temperatures were confirmed using a thermistor (Warner Instruments, TA-29), with temperatures at the recorded cell estimated to be within +/- 2°C of those reported.
The antagonist effects of compounds of Formula (Ia) against human TRPA1 ("hTRPA1") and for some compounds rat TRPA1 ("rTRPA1") in a whole cell patch configuration were evaluated using the in vitro assay described above. The current activation tested was 10 µM AITC, and the tested concentrations ranged from 5 µM and 500 nM. Table 1a (Comparative Compounds)

[2] = test system: rats; experiment: Rodent formalin pain model (Example 3); format: in vivo; details: rat; for Minimal Efficacious Dose of Compound in Formalin Model: IV, statistically significant difference vs vehicle at 0 - 2 min (p≤0.05); for Duration of Pain Behavior: first two minutes after formalin, vehicle 88.6
Description: Compounds of Formula (Ia) are active in rodent models of pain induced by direct activation of the TRPA1 channel with intraplantar injection of the TRPA1 agonist formalin. Compounds of Formula (Ia) were tested in the formalin-induced pain test reported by Abbott et. al. Pain. 1995 Jan;60(1):91-102. Dubuisson et al. describe a method for assessing pain and analgesia in rats. Briefly, dilute formalin (50 µL of 3 % formalin) is injected into the plantar surface of the hind paw. […] The individual responsible for counting the pain behaviors in a particular study is blinded to the treatment groups.
Table 2 is a data table showing the results from testing compounds of Formula (Ia) in the rodent formalin-induced pain model described in […]. Rats were treated with the compounds of Formula (Ia) at various doses (0.1, 0.3, 1, 1.2, 3, 4, 10, or 30 mg/Kg IV) or with a control composition containing the vehicle (i.e., without a compound of Formula (Ia)). Pain behaviors (flinch, lift, lick, bite) were monitored following intraplantar formalin injection. Referring to Table 2, the minimum effective dose was derived from dose resulting in statistically significant difference in behavior at 0 - 2 min time period as compared with vehicle (p≤0.05).

[3] = Aqueous solubility in buffered solutions, HPLC (Example 2); format: physicochemical; details: kinetic from dmso stock, ambient temperature
[4] = sodium bicarbonate buffer in water for injection/5% dextrose, pH 9.0, 50 mM sodium bicarbonate, read-out: pH 9.0 aqueous solubility
[5] = sodium phosphate buffer in water for injection/5% dextrose, pH 7.4, 75 mM sodium phosphate, read-out: pH 7.4 aqueous solubility

Row | IC50 [1] [nM] | SMILES | further results
1 | < 25 | [2H]C([2H])([2H])n1c(=O)n(C)c(=O)c2c1ncn2[C@@H](C)C(=O)Nc1cncc(-c2cnc(N3CCCC3(C)C)nc2)n1 [Compound 2-H] | 
2 | < 25 | C[C@@H](C(=O)Nc1cccc(-c2cnc(N3CCC[C@H]3C(F)(F)F)nc2)n1)n1cnc2c1c(=O)n(C)c(=O)n2C [Compound 1-B, (S)-2-(1,3-Dimethyl-2,6-dioxo-1,2,3,6-tetrahydro-7H-purin-7-yl)-N-(6-(2-((S)-2-(trifluoromethyl)pyrrolidin-1-yl)pyrimidin-5-yl)pyridin-2-yl)propanamide] | Minimal Efficacious Dose of Compound in Formalin Model [2]: <3 mg/kg; Duration of Pain Behavior ([2]; dose 3 mg/kg IV): 6.1 s; Duration of Pain Behavior ([2]; dose 10 mg/kg IV): 0.3 s; solubility kinetic at 24 h [3, 4]: 49 µg/mL (≈ 90.2 µM); solubility kinetic at 24 h [3, 5]: 44 µg/mL (≈ 81 µM)
3 | > 100 | C[C@H](C(=O)Nc1cncc(-c2cnc(N3CCC[C@@H]3C)nc2)n1)n1cnc2c1c(=O)n(C)c(=O)n2C [Compound 3-L] | 
4 | > 100 | C[C@H]1CCCN1c1cccc(NC(=O)[C@H](C)N2C=NC3C2C(=O)N(C)C(=O)N3C)n1 (stereo partly shown) [Comparator 6, reference compound] | 
5 | > 100 | [2H]C([2H])([2H])n1c(=O)n(C)c(=O)c2c1ncn2[C@H](C)C(=O)Nc1cncc(-c2cnc(N3CCCC3(C)C)nc2)n1 [Compound 2-I] | 
6 | > 100 | C[C@H](C(=O)Nc1cccc(-c2cnc(N3CCC[C@H]3C(F)(F)F)nc2)n1)n1cnc2c1c(=O)n(C)c(=O)n2C [Compound 1-D] | 
7 | 25 to 75 | CC(C(=O)Nc1cccc(-c2cnc(N3CCC[C@@H]3C)nc2)n1)n1cnc2c1c(=O)n(C)c(=O)n2C (stereo partly shown) [Compound 4-Q] | 
8 | < 25 | [2H]C([2H])([2H])n1c(=O)n(C)c(=O)c2c1ncn2[C@@H](C)C(=O)Nc1cncc(-c2cnc(N3CCC[C@@H]3C)nc2)n1 [Compound 3-M] | 
9 | < 25 | C[C@@H](C(=O)Nc1cncc(-c2cnc(N3CCCC3(C)C)nc2)n1)n1cnc2c1c(=O)n(C)c(=O)n2C [Compound 2-F, (S)-2-(1,3-dimethyl-2,6-dioxo-1,2,3,6-tetrahydro-7H-purin-7-yl)-N-(6-(2-(2,2-dimethylpyrrolidin-1-yl)pyrimidin-5-yl)pyrazin-2-yl)propanamide] | Minimal Efficacious Dose of Compound in Formalin Model [2]: 1 mg/kg; Duration of Pain Behavior ([2]; dose 0.3 mg/kg IV): 67.5 s; Duration of Pain Behavior ([2]; dose 1 mg/kg IV): 7 s; Duration of Pain Behavior ([2]; dose 3 mg/kg IV): 5 s; solubility kinetic at 24 h [3, 4]: 6 µg/mL (≈ 11.9 µM); solubility kinetic at 24 h [3, 5]: 6 µg/mL (≈ 11.9 µM)
10 | < 25 | CC(C(=O)Nc1cccc(-c2cnc(N3CCC[C@H]3C(F)(F)F)nc2)n1)n1cnc2c1c(=O)n(C)c(=O)n2C (stereo partly shown) [Compound 1-C] | 
11 | > 100 | C[C@H]1CCCN1c1ncc(-c2cncc(NC(=O)[C@H](C)n3cnc4c3c(=O)n(C)c(=O)n4C)n2)cn1 [Compound 3-N, (S)-2-(1,3-dimethyl-2,6-dioxo-1,2,3,6-tetrahydro-7H-purin-7-yl)-N-(6-(2-((S)-2-methylpyrrolidin-1-yl)pyrimidin-5-yl)pyrazin-2-yl)propanamide] | 
12 | < 25 | CC(C(=O)Nc1cncc(-c2cnc(N3CCC[C@H]3C(F)(F)F)nc2)n1)n1cnc2c1c(=O)n(C)c(=O)n2C (stereo partly shown) [Compound 5-U] | 
13 | > 100 | C[C@H](C(=O)Nc1cncc(-c2cnc(N3CCC[C@H]3C(F)(F)F)nc2)n1)n1cnc2c1c(=O)n(C)c(=O)n2C [Compound 5-V] | 
14 | > 100 | C[C@H](C(=O)Nc1cccc(-c2cnc(N3CCC[C@@H]3C)nc2)n1)n1cnc2c1c(=O)n(C)c(=O)n2C [Compound 4-R] | 
15 | > 100 | C[C@H]1CCCN1c1cncc(NC(=O)[C@H](C)N2C=NC3C2C(=O)N(C)C(=O)N3C)n1 (stereo partly shown) [Comparator 5, reference compound] | 
16 | 25 to 75 | C[C@H]1CCCN1c1ncc(-c2cncc(NC(=O)[C@H](C)n3cnc4c3c(=O)n(C)c(=O)n4C)n2)cn1 [Compound 3-K, (S)-2-(1,3-dimethyl-2,6-dioxo-1,2,3,6-tetrahydro-7H-purin-7-yl)-N-(6-(2-((S)-2-methylpyrrolidin-1-yl)pyrimidin-5-yl)pyrazin-2-yl)propanamide] | Minimal Efficacious Dose of Compound in Formalin Model [2]: <3 mg/kg; Duration of Pain Behavior ([2]; dose 3 mg/kg IV): 13.5 s; Duration of Pain Behavior ([2]; dose 10 mg/kg IV): 2.6 s; Duration of Pain Behavior ([2]; dose 30 mg/kg IV): 3.4 s; solubility kinetic at 24 h [3, 4]: 48 µg/mL (≈ 97.9 µM); solubility kinetic at 24 h [3, 5]: 38 µg/mL (≈ 77.5 µM)
17 | > 100 | C[C@H](C(=O)Nc1cncc(-c2cnc(N3CCCC3(C)C)nc2)n1)n1cnc2c1c(=O)n(C)c(=O)n2C [Compound 2-G] | 
18 | 25 to 75 | C[C@H]1CCCN1c1ncc(-c2cccc(NC(=O)[C@H](C)n3cnc4c3c(=O)n(C)c(=O)n4C)n2)cn1 [Compound 4-P] | 

Row | SMILES | IC50 [1] [nM] | further results
19 | CC(C)c1ccc(NC(=O)C(C)n2cnc3c2c(=O)n(C)c(=O)n3C)cc1 (stereo not shown) [Comparator 3, reference compound] | > 100 | 
20 | C[C@H]1CCCN1c1ccc(-c2csc(NC(=O)C(C)(C)n3cnc4c3c(=O)n(C)c(=O)n4C)n2)cc1F [Comparator 4, reference compound] | > 100 | 
